Patent publication US20210260010A1, “COMPOSITIONS AND METHODS FOR THE REDUCTION OR TREATMENT OF INFLAMMATION” (AXCELLA HEALTH INC., priority 2018, published 2021)

Assay: FATZO mouse NASH model on western diet plus fructose (Example 8): body and liver weight, liver histology, NAS, fibrosis
Assay type: in vivo, FATZO mice
Source text: NASH was induced in 60 male FATZO mice by a western diet (Research Diet #D12079B; fat 40% kcal, protein 17% kcal, carbohydrate 43% kcal) supplemented with 5% fructose in the drinking water (WDF) during a 16 week induction phase. Diets and water were available ad libitum. Littermate control male FATZO mice fed with a control diet (n=6, Purina #5008; fat 17% kcal, protein 27% kcal, carbohydrate 56% kcal) and sterile water were set up for control purpose. Mice were housed in plastic cages with microisolator. Sterilized bedding was replaced once a week. Mice were housed three per cage and maintained on a twelve hour light cycle throughout study duration. Room temperature was monitored daily and maintained at 22-25° C. Body weight was recorded every week during the induction phase.
Following 16 weeks diet induction, 6 mice remained on control diet (group 1, Control) while 60 induced mice were randomized on body weight and plasma glucose (fed) for assignment to the following treatments. FATZO mice were administered with test articles starting at 16 weeks post western diet NASH induction for 4 weeks. Test articles were administered by oral gavage. Animals were euthanized at 20 weeks post western diet NASH induction, and tissues were harvested for analysis.
[…], […]+G, LRQNAC, and OCA (Advanced ChemBlocks, Inc.), incipient, and water for irrigation were provided by Axcella Health, Inc. 0.5% Methylcellulosewas provided by CrownBio, Inc. Dosing solutions were prepared according to Appendix 1. […] Obeticholic acid (OCA) was suspended in 0.5% methylcellulose in water for irrigation. All test articles were stored refrigerated. TA compounds were provided in frozen powder form by the sponsor. Dosing was continued for 4 weeks.
[…], […]+G, LRQNAC, OCA and Vehicle were administered by oral gavage at a volume of 10 mL/kg throughout the study. Dosages were calculated by daily body weight. […], […]+G, LRQNAC, and Vehicle were administered twice per day (BID), while OCA was administered once a day (QD) in the morning. Mice receiving OCA once per day (QD), and one vehicle QD. Doses were administered by oral gavage at 0700 and 1800 by oral gavage for 4 weeks.
The viability, clinical signs and behavior were monitored daily. Body weight was recorded daily during the dosing period. Blood samples were collected weekly in the AM (0700) via tail clip for glucose measurement (StatStrip glucometer).
Animals were anesthetized with CO2 inhalation and exsanguinated via cardiac puncture for euthanasia. Terminal blood samples (K2EDTA) were obtained by cardiac puncture in anesthetized animals at termination. Samples were provided frozen to Axcella Health. Organ weights (total liver, gonadal fat pads) were recorded. Pancreas, and small intestine and gonadal fat pads were fixed in 10% Buffered Formalin and prepared as directed in protocol. A section of small intestine, gonadal fat pad and liver were also snap frozen in liquid nitrogen and shipped to the sponsor.
The liver tissues were fixed in Bouin's solution at 4° C. for 24 hours followed by baths of standard concentrations of alcohol then xylene to prepare the tissues for paraffin embedding. After being embedded in paraffin and cooled, five-micron sections were cut and stained for routine H&E and Picric Sirius Red. A section of both right and left lobes of the livers were frozen in OCT for analysis of lipid content with Oil-Red-) staining. The Aperio whole slide digital imaging system (Scan Scope CS, Vista, Calif.) was used for imaging. All slides were imaged at 20×. The scan time ranged from 1.5 minutes to a maximum time of 2.25 minutes. The whole images were housed and stored in their Spectrum software system and images were shot from the whole slides.
The livers were evaluated using the NASH liver criteria for scoring. In this mouse study, one cross section of liver for each case was analyzed with the NASH score system. […]

[1] = FATZO mice on WDF, 4 weeks, LIVRQNAC+G 3885 mg/kg, LRQNAC 2469 mg/kg BID, OCA 30 mg/kg/day QD
[2] = score 0-3, WDF fed FATZO mice, oral gavage 4 weeks, LIVRQNAC+G and LRQNAC leucine-matched BID, OCA QD

CC[C@H]1[C@@H](O)[C@@H]2[C@H](CC[C@]3(C)[C@@H]([C@H](C)CCC(=O)O)CC[C@@H]23)[C@@]2(C)CC[C@@H](O)C[C@@H]12 [OCA, 6α-ethyl-chenodeoxycholic acid]
NAFLD activity score (NAS) (FATZO mice on WDF, 4 weeks, vs vehicle, LIVRQNAC 1500 or 3000 mg/kg, LIVRQNAC+G 3885 mg/kg, LRQNAC 2469 mg/kg, OCA 30 mg/kg/day): no significant effect | Body weight change compared to baseline [1]: −3.9±1.5% | Liver weight (% body weight) [1]: 6.81±0.2 % body weight | Liver Pathology NAS (WDF fed FATZO mice, oral gavage 4 weeks, LIVRQNAC+G and LRQNAC leucine-matched BID, OCA QD): 3.72 ± 0.147 | Liver Pathology Ballooning (score 0-2, WDF fed FATZO mice, oral gavage 4 weeks, LIVRQNAC+G and LRQNAC leucine-matched BID, OCA QD): 0.94 ± 0.056 | Liver Pathology Inflammation [2]: 1.0 ± 0.0 | Liver Pathology Steatosis [2]: 1.78 ± 0.147
